What was measured:
mice = experiment: Influence on the blood pressure and followed-up reactions after recovery in mice anesthesia test; format: in vivo; conditions: for tail bleeding: few / tail bleeding: much / tail bleeding: none / tremor / grooming: after administration & before anesthesia
KM mice (male) = experiment: Test of ED50 and LD50 of anesthesia in mice (sequential method; disappearance of righting reflex or death); format: in vivo; conditions: for ED50: Mus musculus; for TI: TI=LD50/ED50, mice
Protocol: (§1) Test of ED50 and LD50 of the etomidate derivative of the present invention in mice
(§2) Accurately weighed compounds 14, 15, 16 and 18 (5 mg for each of the compounds) were placed in 10 ml centrifuge tubes, respectively. Then 1 ml blank emulsion (20% soybean oil blank emulsion) was added to each tube, and the mixture was sonicated in an ultrasonic apparatus for several minutes to obtain a 5 mg/ml homogeneous emulsion, which was drawn by an injection syringe right before use. An etomidate fat emulsion injection (commercially available, 2 mg/ml) was used as control. The administration concentration in mice was fixed, and the administration volume varied according to actual situation.
(§3) ED50 and LD50 values concerning anesthesia were determined using a sequential method. Administrations in this test were performed on qualified healthy KM mice (male) by injection at a constant rate via caudal vein for 10 seconds. Before the test, a preliminary trial test was conducted to determine an approximate dosage (administration volume) that leads to anesthetization (or death) in animals, which was then set as the intermediate dosage in the formal test. 2-3 Dosage groups were set above and below the intermediate dosage group with an interval of 0.8. The disappearance of righting reflex or death was used as indicators of pharmacological efficacy or toxicity, respectively. The formal test began with the administration of the intermediate dosage. If animals were anesthetized, a lower dosage was administered; otherwise if animals were not anesthetized, a higher dosage was administered, until the cycle was repeated for 3-4 times. LD50 and ED50 values of anesthesia were calculated by a sequential method on aot425 software. TI was calculated according to the following equation: TI=LD50/ED50.

[1] = as above; format: in vivo; conditions: mouse, in vivo; male KM mice, caudal vein injection over 10 s, death, n = 10-20; range in brackets
Protocol: as §1, §2, §3

Male Kunming mice = experiment: Test for latent period and persistent period of anesthesia in mice; format: in vivo; conditions: 6 mg/kg (3*ED50), caudal vein, n = 5; for Latent period: time for disappearance of righting reflex; for Persistent period: time for recovery
Protocol: Test of the etomidate derivative of the present invention for latent period and persistent period of anesthesia in mice
Male Kunming mice were divided into groups, 5 for each group. The test drug was administered by injection at a constant rate via caudal vein for 10 seconds. The time for disappearance of righting reflex (latent period) and the time for recovery (persistent period) were recorded.

11β-hydroxylase = target: T1, 11β-hydroxylase (Homo sapiens, UniProt P15538); conditions: background statement; cited from earlier work
T1 sequence (P15538 25-503): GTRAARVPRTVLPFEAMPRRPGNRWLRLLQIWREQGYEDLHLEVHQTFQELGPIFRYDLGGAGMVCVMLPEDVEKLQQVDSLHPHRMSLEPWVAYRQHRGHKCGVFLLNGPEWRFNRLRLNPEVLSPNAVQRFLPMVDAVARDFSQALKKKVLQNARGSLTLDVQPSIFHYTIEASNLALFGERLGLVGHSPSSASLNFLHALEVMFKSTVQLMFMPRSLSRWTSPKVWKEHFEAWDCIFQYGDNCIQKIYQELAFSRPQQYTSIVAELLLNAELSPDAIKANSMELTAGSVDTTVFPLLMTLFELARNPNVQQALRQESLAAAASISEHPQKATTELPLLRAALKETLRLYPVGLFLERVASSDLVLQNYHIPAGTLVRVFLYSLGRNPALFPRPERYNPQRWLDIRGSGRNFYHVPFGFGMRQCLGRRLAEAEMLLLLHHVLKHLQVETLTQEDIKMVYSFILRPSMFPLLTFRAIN

[2] = tested on: secretion of cortisol and/or corticosterone; conditions: background, literature; cited from earlier work
[3] = background, literature; cited from earlier work

Q: For `COC(=O)c1c(F)ncn1[C@H](C)c1ccccc1` [Compound 15, methyl R-1-(1-phenethyl)-1H-4-fluoroimidazole-5-carboxylate], which “tail bleeding: few” value (mice) is on record?
A: The value was 50%.

Q: What about the “tail bleeding: much” value (mice) of the same molecule?
A: Its value is 40%.

Q: What about the “tail bleeding: none” value (mice) of the same molecule?
A: Its value is 10%.

Q: What about the tremor (mice) of the same molecule?
A: The tremor was 70%.

Q: And the quiet (mice; post-recovery)?
A: The quiet was 100%.

Q: What about the ED50 (KM mice (male)) of the same molecule?
A: Its ED50 is 2 mg/kg.

Q: And the TI (KM mice (male))?
A: The TI was 24.

Q: What about the LD50 [1] of the same molecule?
A: Its LD50 is 48.4 mg/kg.

Q: And the Walking time (Male Kunming mice)?
A: The Walking time was 68.80 ± 30.10 s.

Q: What about the Latent period (Male Kunming mice) of the same molecule?
A: The Latent period was 5.90 ± 0.88 s.

Q: What about the Persistent period (Male Kunming mice) of the same molecule?
A: The Persistent period was 83.60 ± 29.13 s.

Q: Which grooming (mice) does the source give for `CCOC(=O)c1c(F)ncn1[C@H](C)c1ccccc1` [Compound 16, ethyl R-1-(1-phenethyl)-1H-4-fluoroimidazole-5-carboxylate] here?
A: Its grooming is 10%.

Q: And the “tail bleeding: few” value (mice)?
A: Its value is 60%.

Q: And the “tail bleeding: much” value (mice)?
A: Its value is 30%.

Q: And the “tail bleeding: none” value (mice)?
A: The value was 10%.

Q: What about the tremor (mice) of the same molecule?
A: Its tremor is 70%.

Q: What about the jump (mice; post-recovery) of the same molecule?
A: The jump was 20%.

Q: And the quiet (mice; post-recovery)?
A: The quiet was 80%.

Q: What about the ED50 (KM mice (male)) of the same molecule?
A: The ED50 was 2 mg/kg.

Q: And the TI (KM mice (male))?
A: Its TI is 23.

Q: What about the LD50 [1] of the same molecule?
A: Its LD50 is 46.5 mg/kg.

Q: What about the Walking time (Male Kunming mice) of the same molecule?
A: Its Walking time is 98.10 ± 63.96 s.

Q: And the Latent period (Male Kunming mice)?
A: Its Latent period is 5.80 ± 0.79 s.

Q: And the Persistent period (Male Kunming mice)?
A: The Persistent period was 82.10 ± 20.18 s.

Q: Which “inhibitory effect on 11β-hydroxylase” value (11β-hydroxylase) does the source give for `CCOC(=O)c1cncn1[C@H](C)c1ccccc1` [Etomidate, ethyl R-(+)-1-(1-phenethyl)-1H-imidazole-5-carboxylate] here?
A: Its value is “inhibitory effect”.

Q: And the grooming (mice)?
A: The grooming was 20%.

Q: And the “tail bleeding: few” value (mice)?
A: The value was 50%.

Q: And the “tail bleeding: much” value (mice)?
A: The value was 10%.

Q: And the “tail bleeding: none” value (mice)?
A: Its value is 40%.

Q: And the tremor (mice)?
A: Its tremor is 80%.

Q: And the convulsion (mice; post-recovery)?
A: The convulsion was 10%.

Q: What about the jump (mice; post-recovery) of the same molecule?
A: Its jump is 40%.

Q: And the quiet (mice; post-recovery)?
A: The quiet was 50%.

Q: And the ED50 (KM mice (male))?
A: The ED50 was 2 mg/kg.

Q: And the TI (KM mice (male))?
A: The TI was 25.

Q: What about the LD50 [1] of the same molecule?
A: The LD50 was 50.3 mg/kg.

Q: And the “inhibitory effect on the secretion of cortisol and/or corticosterone” value (“inhibitory effect on the secretion” for short) [2]?
A: The value was “reduce the secretion”.

Q: And the Walking time (Male Kunming mice)?
A: Its Walking time is 156.30 ± 120.78 s.

Q: And the Latent period (Male Kunming mice)?
A: The Latent period was 5.40 ± 0.52 s.

Q: What about the Persistent period (Male Kunming mice) of the same molecule?
A: Its Persistent period is 175.50 ± 100.09 s.

Q: With `COC(=O)CCOC(=O)c1cncn1[C@H](C)c1ccccc1` [Formula 7, Methoxycarbonyl-etomidate] as the molecule, how does the “anesthetic effect / activity” value [3] read?
A: The value was “drastically decreased anesthetic effect”.

Q: And the “inhibitory effect on the secretion” value [2]?
A: The value was “lower inhibitory effect”.

Q: With `CCOC(=O)c1cccn1[C@H](C)c1ccccc1` [Formula 8] as the molecule, how does the “anesthetic effect / activity” value [3] read?
A: Its value is “decreased anesthetic activity”.

Q: What about the duration of action [3] of the same molecule?
A: Its duration of action is “prolonged duration of action”.

Q: What about the “inhibitory effect on the secretion” value [2] of the same molecule?
A: The value was “little inhibition”.

— patent US10392352B2, “Etomidate derivative and intermediate, preparation method and use thereof” (JIANGSU NHWALUOKANG PHARMACEUTICAL RESEARCH AND DEVELOPMENT …, priority 2015, dated 2019)
